Source: patent US9463216B2 (priority 2012, dated 2016)

Molecular target: PA (Bacillus anthracis, UniProt P13423)
Assay type: binding, B. anthracis

PA, sequence (P13423 30-764 limits assumed): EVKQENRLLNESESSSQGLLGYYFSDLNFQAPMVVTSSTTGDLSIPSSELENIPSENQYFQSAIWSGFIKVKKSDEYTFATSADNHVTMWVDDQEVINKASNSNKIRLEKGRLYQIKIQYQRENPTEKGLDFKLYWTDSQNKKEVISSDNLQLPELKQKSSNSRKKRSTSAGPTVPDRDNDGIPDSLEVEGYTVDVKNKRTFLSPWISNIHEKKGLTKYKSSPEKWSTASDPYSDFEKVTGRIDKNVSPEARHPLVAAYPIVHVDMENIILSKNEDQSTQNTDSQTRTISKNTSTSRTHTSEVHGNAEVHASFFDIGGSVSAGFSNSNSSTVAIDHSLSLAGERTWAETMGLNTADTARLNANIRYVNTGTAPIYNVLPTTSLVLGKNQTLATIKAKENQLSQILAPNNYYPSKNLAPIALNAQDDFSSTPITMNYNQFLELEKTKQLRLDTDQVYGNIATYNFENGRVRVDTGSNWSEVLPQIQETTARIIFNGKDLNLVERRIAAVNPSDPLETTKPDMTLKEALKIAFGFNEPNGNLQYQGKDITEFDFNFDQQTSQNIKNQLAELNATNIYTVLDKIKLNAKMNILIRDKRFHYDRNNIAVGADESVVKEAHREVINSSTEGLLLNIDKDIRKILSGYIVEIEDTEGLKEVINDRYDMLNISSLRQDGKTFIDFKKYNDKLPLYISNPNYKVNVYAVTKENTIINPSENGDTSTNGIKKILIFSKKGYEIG

poly-γ-D-glutamic acid [Compound 3]
form complexes with PA: can form complexes with PA
